32 molecules from US20240246979A1, “cGAS INHIBITORS” (Eli Lilly and Company, priority 2022, published 2024) can be followed below.

In experiment [1] the target is T1, cGAS (Homo sapiens, UniProt Q8N884). The experiment can be described thus: In vitro inhibition assay of cGAS activity (cGAMP production, RapidFire mass spectrometry). The format is biochemical. The note with it: 10 nM recombinant human cGAS, 60 nM 75-bp dsDNA, 50 μM ATP, 50 μM GTP, 3 hrs. Details: Insert cDNA encoding full-length of human cGAS; His6; made in house; host or cells: E. coli BL21(DE3). A digest of the protocol: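 Reactions in 10 mM Tris-Cl pH 7.5, 5 mM MgCl2, 0.01% Triton X-100 contained serially diluted compound, 10 nM recombinant cGAS, dsDNA activator and 50 μM each of ATP and GTP, run 3 hrs at ambient temperature. After formic acid quench, cGAMP output was measured by mass spectrometry and percent inhibition versus log concentration was fitted for IC50.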

In experiment [2] the target is T1, cGAS. The experiment can be described thus: Cellular assay to measure cGAS activity (IFNb AlphaLISA in THP1 cells stimulated by RDG-Adenovirus-GFP). The experiment is classed as cell-based. On the set-up: host or cells: THP1 cells differentiated with PMA and stimulated with RDG-Adenovirus-GFP. The note with it: PMA-differentiated THP1 cells, RDG-Adenovirus-GFP at 1000 MOI; inhibition of IFNb production as marker for cGAS activity. The essentials: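 The readout is secreted IFNb measured by AlphaLISA after overnight compound exposure. THP1 cells, differentiated with PMA for 24 h and rested overnight, were infected with RDG-Adenovirus-GFP (1000 MOI, 4 h) before compounds were added; IC50 came from a 4-parameter logistic fit of inhibition against log concentration.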
(In Alpha technology, singlet oxygen from a donor bead excites a nearby acceptor bead.)

Where only a bound is given, the exact number is not on record here.

T1 sequence (Q8N884 whole entry): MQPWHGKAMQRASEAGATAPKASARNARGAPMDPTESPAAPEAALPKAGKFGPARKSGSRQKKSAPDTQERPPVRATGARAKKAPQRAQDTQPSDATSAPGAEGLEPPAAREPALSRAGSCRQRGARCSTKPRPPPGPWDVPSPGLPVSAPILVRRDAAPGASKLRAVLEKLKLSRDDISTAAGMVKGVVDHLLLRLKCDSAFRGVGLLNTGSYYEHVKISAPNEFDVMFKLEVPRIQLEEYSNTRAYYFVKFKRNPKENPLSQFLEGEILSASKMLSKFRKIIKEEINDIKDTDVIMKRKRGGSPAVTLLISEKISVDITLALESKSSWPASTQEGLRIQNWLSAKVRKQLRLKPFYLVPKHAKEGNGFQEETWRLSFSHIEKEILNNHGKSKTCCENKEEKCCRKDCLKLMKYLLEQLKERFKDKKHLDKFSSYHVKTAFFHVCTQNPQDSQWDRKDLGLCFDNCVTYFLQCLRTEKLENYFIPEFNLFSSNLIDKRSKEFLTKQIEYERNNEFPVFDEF

Regarding `O=C1Cc2c([nH]c3c(Cl)c(Cl)cc(-c4nnc[nH]4)c23)CCN1` [Example 29, 7,8-Dichloro-10-(4H-1,2,4-triazol-3-yl)-3,4,5,6-tetrahydroazepino[4,5-b]indol-2(1H)-one], the half-inhibitory concentration (IC50) (commonly the concentration that gives 50% inhibition) on cGAS [1] was 122 nM; on cGAS [2] it was over 10000 nM.

`CC(C)(O)C[C@@H]1CNC(=O)Cc2c1[nH]c1c(Cl)c(Cl)cc(OCC#N)c21` (single isomer, unassigned) [Example 109]: the values for the IC50 at cGAS [1] and against cGAS [2] were 159 nM and 1860 nM, respectively.

Turning to `C[C@@H]1C(=O)NCCc2[nH]c3c(Cl)c(Cl)cc(OCC(N)=O)c3c21` (single isomer, unassigned) [Example 17B], the IC50 came to 1540 nM on cGAS [1] and 4080 nM against cGAS [2].

As for `Cn1ncc(-c2cc(Cl)c(Cl)c3c2c2c(n3C)C(CCO)CNC(=O)C2)n1` (stereo not shown) [Example 127, 7,8-Dichloro-5-(2-hydroxyethyl)-6-methyl-10-(2-methyl-2H-1,2,3-triazol-4-yl)-3,4,5,6-tetrahydroazepino[4,5-b]indol-2(1H)-one], the IC50 on cGAS [1] was 34.4 nM; on cGAS [2], 1210 nM.

On to `NC(=O)C(=O)Nc1cc(Cl)c(Cl)c2[nH]c3c(c12)CC(=O)NCC3` [Example 32, N^1-(7,8-Dichloro-2-oxo-1,2,3,4,5,6-hexahydroazepino[4,5-b]indol-10-yl)oxalamide], for which the IC50 at cGAS [1] came to 33.3 nM; against cGAS [2] it was 1400 nM.

Consider `CC[C@H]1C(=O)NCCc2[nH]c3c(Cl)c(Cl)cc(OCC#N)c3c21` (single isomer, unassigned) [Example 35], for which the IC50 was found to be 43.8 nM on cGAS [1] and 3690 nM against cGAS [2].

Take `COCC[C@H]1CNC(=O)[C@@H](C)c2c1[nH]c1c(Cl)c(Cl)cc(NCCO)c21` (single isomer, unassigned) [Example 173]: the IC50 turned out to be 14.7 nM at cGAS [1] and 1610 nM at cGAS [2].

For the molecule `CC1C(=O)NCCc2[nH]c3c(Cl)c(Cl)cc(NCCC(F)F)c3c21` (stereo not shown) [Example 71, 7,8-Dichloro-10-((3,3-difluoropropyl)amino)-1-methyl-3,4,5,6-tetrahydroazepino[4,5-b]indol-2(1H)-one], the IC50 came out at 43 nM on cGAS [1] and 2320 nM on cGAS [2].

`Cn1ncc(-c2cc(Cl)c(Cl)c3[nH]c4c(c23)CC(=O)NCC4CCO)n1` (racemic) [Example 8, 7,8-Dichloro-5-(2-hydroxyethyl)-10-(2-methyl-2H-1,2,3-triazol-4-yl)-3,4,5,6-tetrahydroazepino[4,5-b]indol-2(1H)-one]: the IC50 on cGAS [1] was determined as 19 nM; against cGAS [2] it was 420 nM.

On to `C[C@@H]1CNC(=O)[C@H](C)c2c1[nH]c1c(Cl)c(Cl)cc(NCCO)c21` (single isomer, unassigned) [Example 156], for which the IC50 at cGAS [1] is 1810 nM; at cGAS [2], over 10000 nM.

In the case of `CN(C)CCC1CNC(=O)Cc2c1[nH]c1c(Cl)c(Cl)cc(-c3cnn(C)n3)c21` (stereo not shown) [Example 118, 7,8-Dichloro-5-(2-(dimethylamino)ethyl)-10-(2-methyl-2H-1,2,3-triazol-4-yl)-3,4,5,6-tetrahydroazepino[4,5-b]indol-2(1H)-one], the IC50 amounted to 42.4 nM on cGAS [1] and 577 nM against cGAS [2].

For `COCCOc1cc(Cl)c(Cl)c2[nH]c3c(c12)[C@H](C)C(=O)NCC3(C)C` (single isomer, unassigned) [Example 185, (S)-7,8-Dichloro-10-(2-methoxyethoxy)-1,5,5-trimethyl-3,4,5,6-tetrahydroazepino[4,5-b]indol-2(1H)-one or (R)-7,8-Dichloro-10-(2-methoxyethoxy)-1,5,5-trimethyl-3,4,5,6-tetrahydroazepino[4,5-b]indol-2(1H)-one], the half-maximal inhibitory concentration (IC50) on cGAS [1] was 1890 nM; against cGAS [2] it was over 10000 nM.

Turning to `C[C@@H]1C(=O)NCCc2[nH]c3c(Cl)c(Cl)cc(OCC#N)c3c21` (single isomer, unassigned) [Example 16B], the half-inhibitory concentration (IC50) turned out to be 998 nM at cGAS [1] and 1010 nM on cGAS [2].

Turning to `CCOC(=O)CC1CNC(=O)Cc2c1[nH]c1c(Cl)c(Cl)cc(-c3cnn(C)n3)c21` (racemic) [Example 4, Ethyl 2-(7,8-dichloro-10-(2-methyl-2H-1,2,3-triazol-4-yl)-2-oxo-1,2,3,4,5,6-hexahydroazepino[4,5-b]indol-5-yl)acetate], the IC50 at cGAS [1] amounted to 26.2 nM; at cGAS [2], 3570 nM.

Take `C[C@@H]1CNC(=O)[C@H](C)c2c1[nH]c1c(Cl)c(Cl)cc(NCCO)c21` (single isomer, unassigned) [Example 155]: the IC50 was 17.7 nM at cGAS [1] and 655 nM on cGAS [2].

For `O=C1Cc2c([nH]c3c(Cl)c(Cl)cc(-c4cnco4)c23)CCN1` [Example 27, 7,8-Dichloro-10-(oxazol-5-yl)-3,4,5,6-tetrahydroazepino[4,5-b]indol-2(1H)-one], the IC50 on cGAS [1] was 110 nM; against cGAS [2], over 10000 nM.

As for `Cn1c2c(c3c(CC#N)cc(Cl)c(Cl)c31)CC(=O)NC[C@H]2CC(C)(C)O` (single isomer, unassigned) [Example 129], the values for the concentration for half-maximal inhibition (IC50) at cGAS [1] and at cGAS [2] were 1550 nM and 1320 nM, respectively.

`C[C@@H]1C(=O)NCCc2[nH]c3c(Cl)c(Cl)cc(OCC(F)(F)CO)c3c21` (single isomer, unassigned) [Example 74]: the IC50 at cGAS [1] was 3440 nM; against cGAS [2], over 10000 nM.

As to `C[C@@H]1C(=O)NCCc2[nH]c3c(Cl)c(Cl)cc(NC(=O)CO)c3c21` (single isomer, unassigned) [Example 12A], the concentration for half-maximal inhibition (IC50) on cGAS [1] was found to be 16.3 nM; against cGAS [2] it was 356 nM.

As to `C[C@H](O)C(=O)Nc1cc(Cl)c(Cl)c2c1c1c(n2C(F)F)CCNC(=O)[C@H]1C` (single isomer, unassigned) [Example 143], the IC50 at cGAS [1] is 1510 nM; on cGAS [2], over 10000 nM.

In the case of `O=C1Cc2c([nH]c3c(Cl)c(Cl)cc(NC(=O)CO)c23)CCN1` [Example 24, N-(7,8-Dichloro-2-oxo-1,2,3,4,5,6-hexahydroazepino[4,5-b]indol-10-yl)-2-hydroxyacetamide], the IC50 on cGAS [1] was determined as 88.4 nM; at cGAS [2], 6910 nM.

Consider `CC1C(=O)NCCc2c1c1c(NC(=O)CO)cc(Cl)c(Cl)c1n2C(F)F` (stereo not shown) [Example 144, N-(7,8-Dichloro-6-(difluoromethyl)-1-methyl-2-oxo-1,2,3,4,5,6-hexahydroazepino[4,5-b]indol-10-yl)-2-hydroxyacetamide], for which the half-maximal inhibitory concentration (IC50) at cGAS [1] amounted to 22.5 nM; against cGAS [2], 649 nM.

For the molecule `CC1C(=O)NCCc2[nH]c3c(Cl)c(Cl)cc(NCc4cocn4)c3c21` (stereo not shown) [Example 57, 7,8-Dichloro-1-methyl-10-((oxazol-4-ylmethyl)amino)-3,4,5,6-tetrahydroazepino[4,5-b]indol-2(1H)-one], the values for the IC50 on cGAS [1] and at cGAS [2] were 42.1 nM and 558 nM, respectively.

In the case of `C[C@@H]1CNC(=O)Cc2c1[nH]c1c(Cl)c(Cl)cc(OCC#N)c21` (single isomer, unassigned) [Example 149], the IC50 at cGAS [1] came out at 1560 nM; at cGAS [2], 3080 nM.

Take `Cn1c2c(c3c(CC#N)cc(Cl)c(Cl)c31)CC(=O)NCC2CCO` (stereo not shown) [Example 121, 2-(7,8-Dichloro-5-(2-hydroxyethyl)-6-methyl-2-oxo-1,2,3,4,5,6-hexahydroazepino[4,5-b]indol-10-yl)acetonitrile]: the results for the IC50 on cGAS [1] and at cGAS [2] were 17.2 nM and 180 nM, respectively.

Take `CC1C(=O)NCCc2[nH]c3c(Cl)c(Cl)cc(CCCO)c3c21` (stereo not shown) [Example 88, 7,8-Dichloro-10-(3-hydroxypropyl)-1-methyl-3,4,5,6-tetrahydroazepino[4,5-b]indol-2(1H)-one]: the IC50 at cGAS [1] amounted to 36.1 nM; at cGAS [2] it was 3230 nM.

As for `N#CCc1cc(Cl)c(Cl)c2c1c1c3n2CCC3CNC(=O)C1` (stereo not shown) [Example 114, 2-(8,9-Dichloro-2-oxo-2,3,4,4a, 5,6-hexahydro-1H-azepino[3,4,5-gh]benzo[b]pyrrolizin-11-yl)acetonitrile], the values for the 50% inhibitory concentration (IC50) on cGAS [1] and at cGAS [2] were 38.4 nM and 1270 nM, respectively.

For the molecule `COCC[C@@H]1CNC(=O)[C@H](C)c2c1[nH]c1c(Cl)c(Cl)cc(NCCO)c21` (racemic) [Example 170, cis 7,8-Dichloro-10-((2-hydroxyethyl)amino)-5-(2-methoxyethyl)-1-methyl-3,4,5,6-tetrahydroazepino[4,5-b]indol-2(1H)-one], the IC50 at cGAS [1] was found to be 27.7 nM; at cGAS [2] it was 473 nM.

On to `CC1C(=O)NCC(C)(C)c2[nH]c3c(Cl)c(Cl)cc(NCCO)c3c21` (stereo not shown) [Example 131, 7,8-Dichloro-10-((2-hydroxyethyl)amino)-1,5,5-trimethyl-3,4,5,6-tetrahydroazepino[4,5-b]indol-2(1H)-one], for which the results for the IC50 at cGAS [1] and at cGAS [2] were 53.3 nM and 2720 nM, respectively.

In the case of `CC1C(=O)NCCc2[nH]c3c(Cl)c(Cl)cc(NC4COC4)c3c21` (racemic) [Example 60, 7,8-Dichloro-1-methyl-10-(oxetan-3-ylamino)-3,4,5,6-tetrahydroazepino[4,5-b]indol-2(1H)-one], the values for the half-maximal inhibitory concentration (IC50) at cGAS [1] and at cGAS [2] were 53.3 nM and 974 nM, respectively.

In the case of `C[C@@H]1CNC(=O)Cc2c1[nH]c1c(Cl)c(Cl)cc(-c3cnn(C)n3)c21` (single isomer, unassigned) [Example 147], the IC50 on cGAS [1] was found to be 237 nM; on cGAS [2], 5170 nM.

Take `COCCOc1cc(Cl)c(Cl)c2[nH]c3c(c12)[C@H](C)C(=O)NCC3` (single isomer, unassigned) [Example 80]: the figures for the 50% inhibitory concentration (IC50) at cGAS [1] and against cGAS [2] were 8.12 nM and 280 nM, respectively.
